Laboratory results taken from BindingDB's records for doi:10.1021/jm00213a022 (Sichuan University, 2021).
Peptide text beside a SMILES is read from it. * marks the point of attachment. Cbz = O=C(OCc1ccccc1)*

Legend:
[1] = target: Matrix metalloproteinase-9 (Homo sapiens, UniProt P14780); assay: Inhibition of MMP-9 (unknown origin)
[2] = target: 72 kDa type IV collagenase (Homo sapiens, UniProt P08253); assay: Inhibition of MMP-2 (unknown origin)
[3] = target: ATP-dependent Clp protease proteolytic subunit, mitochondrial (Homo sapiens, UniProt Q16740); assay: Agonist activity at human recombinant CLpP (57 to 277 amino acids) expressed in Escherichia coli using fluorogenic peptide AC-WLA-AMC as substrate incubated for 10 mins by fluorescence based assay
ATP-dependent Clp protease proteolytic subunit, mitochondrial, sequence (Q16740 whole entry, the tested form may be a part): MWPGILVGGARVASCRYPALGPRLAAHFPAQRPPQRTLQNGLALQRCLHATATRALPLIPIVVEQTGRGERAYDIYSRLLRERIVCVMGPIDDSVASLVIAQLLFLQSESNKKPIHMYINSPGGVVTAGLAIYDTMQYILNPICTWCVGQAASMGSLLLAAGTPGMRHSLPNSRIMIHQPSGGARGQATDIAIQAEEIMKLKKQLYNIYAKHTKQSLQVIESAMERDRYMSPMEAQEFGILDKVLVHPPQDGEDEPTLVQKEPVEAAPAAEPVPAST

[4] = target: T1, Cathepsin K (Homo sapiens, UniProt P43235); assay: Inhibition of human cathepsin K
T1 sequence (P43235 whole entry): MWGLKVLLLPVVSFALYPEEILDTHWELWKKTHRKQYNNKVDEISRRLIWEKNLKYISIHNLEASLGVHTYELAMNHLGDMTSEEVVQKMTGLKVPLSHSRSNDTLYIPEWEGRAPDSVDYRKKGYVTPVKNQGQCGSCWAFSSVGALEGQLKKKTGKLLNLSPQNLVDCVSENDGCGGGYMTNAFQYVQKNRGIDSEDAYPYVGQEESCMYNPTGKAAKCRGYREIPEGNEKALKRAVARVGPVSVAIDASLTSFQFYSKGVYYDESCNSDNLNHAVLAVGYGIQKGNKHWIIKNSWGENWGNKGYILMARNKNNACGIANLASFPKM

[5] = target: T2, Procathepsin L (Homo sapiens, UniProt P07711); assay: Inhibition of human cathepsin L
T2 sequence (P07711 whole entry): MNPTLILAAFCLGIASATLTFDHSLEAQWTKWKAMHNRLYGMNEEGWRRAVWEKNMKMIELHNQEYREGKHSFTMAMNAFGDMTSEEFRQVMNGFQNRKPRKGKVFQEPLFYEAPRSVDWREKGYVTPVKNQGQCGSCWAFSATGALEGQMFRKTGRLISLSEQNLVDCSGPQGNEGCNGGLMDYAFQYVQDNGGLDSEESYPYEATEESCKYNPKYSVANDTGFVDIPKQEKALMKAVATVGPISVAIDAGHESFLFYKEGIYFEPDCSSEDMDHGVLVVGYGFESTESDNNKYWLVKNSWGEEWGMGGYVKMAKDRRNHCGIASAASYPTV

[6] = target: T3, Proteasome subunit beta type-7 (Homo sapiens, UniProt Q99436); assay: Inhibition of beta2 proteasome (unknown origin)
T3 sequence (Q99436 whole entry): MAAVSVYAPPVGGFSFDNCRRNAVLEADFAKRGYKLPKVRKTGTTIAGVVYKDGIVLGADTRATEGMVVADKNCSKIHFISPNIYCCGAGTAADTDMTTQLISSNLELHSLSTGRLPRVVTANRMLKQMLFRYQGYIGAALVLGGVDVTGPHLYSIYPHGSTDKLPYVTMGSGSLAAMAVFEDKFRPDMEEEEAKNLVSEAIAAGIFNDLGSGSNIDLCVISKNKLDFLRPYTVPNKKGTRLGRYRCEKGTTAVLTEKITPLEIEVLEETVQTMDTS

[7] = target: T4, Proteasome subunit beta type-5 (Homo sapiens, UniProt P28074); assay: Inhibition of beta5 proteasome (unknown origin)
T4 sequence (P28074 whole entry): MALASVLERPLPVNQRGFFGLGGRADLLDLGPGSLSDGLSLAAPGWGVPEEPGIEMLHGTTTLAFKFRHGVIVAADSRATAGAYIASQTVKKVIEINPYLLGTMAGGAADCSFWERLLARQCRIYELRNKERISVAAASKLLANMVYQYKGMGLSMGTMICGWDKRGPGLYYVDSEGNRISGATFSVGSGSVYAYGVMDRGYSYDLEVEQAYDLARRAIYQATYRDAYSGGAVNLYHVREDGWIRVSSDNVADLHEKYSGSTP

[8] = target: T5, Proteasome subunit beta type-1 (Homo sapiens, UniProt P20618); assay: Inhibition of beta 1 proteasome (unknown origin)
T5 sequence (P20618 whole entry): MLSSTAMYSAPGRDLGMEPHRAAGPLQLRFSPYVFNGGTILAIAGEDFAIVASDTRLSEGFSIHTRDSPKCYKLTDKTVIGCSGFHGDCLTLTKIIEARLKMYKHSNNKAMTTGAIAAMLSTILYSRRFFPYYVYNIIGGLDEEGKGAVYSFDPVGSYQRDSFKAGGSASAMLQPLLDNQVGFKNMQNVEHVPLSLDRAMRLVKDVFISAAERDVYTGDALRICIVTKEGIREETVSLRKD

[9] = target: T2, Procathepsin L; assay: Binding affinity to Cathepsin L (unknown origin) assessed as inhibition constant

72 kDa type IV collagenase, sequence (P08253 whole entry, the tested form may be a part): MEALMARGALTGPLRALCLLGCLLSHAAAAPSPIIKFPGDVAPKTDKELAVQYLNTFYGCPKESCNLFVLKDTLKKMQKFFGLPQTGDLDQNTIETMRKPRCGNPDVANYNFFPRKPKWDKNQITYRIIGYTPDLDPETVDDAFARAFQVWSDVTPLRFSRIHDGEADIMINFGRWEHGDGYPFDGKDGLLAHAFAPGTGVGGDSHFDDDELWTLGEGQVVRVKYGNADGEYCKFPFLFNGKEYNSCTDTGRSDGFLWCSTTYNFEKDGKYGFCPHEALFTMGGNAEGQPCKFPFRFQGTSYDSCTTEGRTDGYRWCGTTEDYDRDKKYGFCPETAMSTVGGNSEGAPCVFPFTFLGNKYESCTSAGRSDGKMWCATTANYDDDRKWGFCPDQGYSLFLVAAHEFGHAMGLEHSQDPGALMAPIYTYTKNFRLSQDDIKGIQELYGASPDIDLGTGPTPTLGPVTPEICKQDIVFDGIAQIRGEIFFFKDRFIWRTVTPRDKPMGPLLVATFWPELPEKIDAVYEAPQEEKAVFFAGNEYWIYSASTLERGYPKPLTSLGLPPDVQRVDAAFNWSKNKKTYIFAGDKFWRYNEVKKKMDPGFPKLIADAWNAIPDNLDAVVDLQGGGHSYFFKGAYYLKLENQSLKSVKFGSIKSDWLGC
Matrix metalloproteinase-9, sequence (P14780 whole entry): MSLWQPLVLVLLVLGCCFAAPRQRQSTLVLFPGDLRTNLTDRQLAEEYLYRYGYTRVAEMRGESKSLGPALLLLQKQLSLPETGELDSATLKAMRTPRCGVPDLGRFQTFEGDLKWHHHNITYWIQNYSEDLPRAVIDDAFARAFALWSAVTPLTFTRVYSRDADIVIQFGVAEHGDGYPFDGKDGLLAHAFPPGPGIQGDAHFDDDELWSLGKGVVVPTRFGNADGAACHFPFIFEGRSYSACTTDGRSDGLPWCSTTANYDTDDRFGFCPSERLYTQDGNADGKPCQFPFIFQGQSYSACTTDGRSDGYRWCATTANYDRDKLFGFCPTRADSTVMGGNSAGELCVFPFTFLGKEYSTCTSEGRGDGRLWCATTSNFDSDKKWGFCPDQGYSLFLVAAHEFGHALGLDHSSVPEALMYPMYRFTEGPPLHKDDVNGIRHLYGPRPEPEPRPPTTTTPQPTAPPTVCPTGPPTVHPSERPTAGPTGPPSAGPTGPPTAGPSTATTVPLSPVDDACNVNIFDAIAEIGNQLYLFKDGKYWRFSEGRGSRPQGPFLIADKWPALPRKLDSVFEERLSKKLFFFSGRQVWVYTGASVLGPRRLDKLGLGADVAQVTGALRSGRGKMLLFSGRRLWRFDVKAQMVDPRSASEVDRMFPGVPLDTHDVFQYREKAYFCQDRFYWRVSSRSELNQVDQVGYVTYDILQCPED

CC(C)N1CCN(C2(c3ccc(Oc4ccc(Br)cc4)cc3)C(=O)NC(=O)NC2=O)CC1 [5-[4-(4-Bromo-phenoxy)-phenyl]-5-(4-isopropyl-piperazin-1-yl)-pyrimidine-2,4,6-trione]
IC50 [1]: 1 nM
IC50 [2]: 26 nM

N#Cc1cccc(CN2CCC3=C(C2)C(=O)N(Cc2ccc(C(F)(F)F)cc2)C2=NCCN23)c1
EC50 [3]: 120 nM

N#CN1CC(CNC(=O)C2CCCCC2)C1 [Cyclohexanecarboxylic acid (1-cyano-azetidin-3-ylmethyl)-amide]
IC50 [4]: 5 nM
IC50 [5]: 6 nM

N#Cc1cccc(CN2CCC3=C(C2)C(=O)N(Cc2ccc(Cl)cc2)C2=NCCN23)c1
EC50 [3]: 120 nM

O=C(c1ccccc1)c1ccc(S(=O)(=O)CC(CCCc2ccccc2)C(=O)NO)cc1 (configuration not stated) [2-(4-Benzoyl-benzenesulfonylmethyl)-5-phenyl-pentanoic acid hydroxyamide]
IC50 [1]: 5 nM
IC50 [2]: 4 nM

COc1ccc(S(=O)(=O)N(Cc2cccnc2)[C@@H](CCF)C(=O)NO)cc1
IC50 [1]: 3 nM
IC50 [2]: 33 nM

O=C1NC2([C@@H](O)[C@@H]3C=CCCC3)C(=O)O[C@H]2[C@H]1CCCl (some centres not stated)
IC50 [6]: 8 nM
IC50 [7]: 2.6 nM
IC50 [8]: 33 nM

CC(C)C[C@H](NC(=O)[C@@H](NC(=O)c1cccc(-c2ccccc2)n1)[C@@H](C)O)B(O)O [(R)-1-((2S,3R)-3-hydroxy-2-(6-phenylpicolinamido)butanamido)-3-methylbutylboronic acid]
IC50 [7]: 1.5 nM

CCc1ccc(C#Cc2ccc(S(=O)(=O)N[C@H](C(=O)O)C(C)C)s2)cc1
IC50 [1]: 4.4 nM
IC50 [2]: 4.8 nM

COc1ccc(-c2ccc(S(=O)(=O)N(OC(C)C)[C@H](CCC3C(=O)c4ccccc4C3=O)C(=O)NO)cc2)cc1
IC50 [1]: 0.43 nM
IC50 [2]: 0.67 nM

Cc1cccc(CN2CCc3c(c(=O)n(Cc4ccc(C(F)(F)F)cc4)c(=O)n3CCCN)C2)c1
EC50 [3]: 120 nM

CC(C)C[C@H](NC(=O)OC(C)(C)C)C(=O)N1C[C@H]1C(=O)N1[C@H](C(=O)OCc2ccccc2)[C@@H]1C(=O)OCc1ccccc1
Ki [9]: 13 nM

C#Cc1cccc(CN2CCC3=C(C2)C(=O)N(Cc2ccc(C)cc2)C2=NCCN23)c1
EC50 [3]: 800 nM

CC(C)[C@H](O)C12NC(=O)[C@H](C)[C@@H]1OC2=O (some centres not stated)
IC50 [7]: 47 nM

CCN([C@@H](C(=O)O)C(C)C)S(=O)(=O)c1ccc(-c2nc(-c3ccc(C)s3)no2)cc1
IC50 [1]: 36 nM
IC50 [2]: 3.7 nM

CC(C)C[C@H](NC(=O)CNC(=O)c1cc(Cl)ccc1Cl)B(O)O
IC50 [6]: 3500 nM

CC(C)C[C@@H](C=O)NC(=O)[C@H](CC(C)C)NC(=O)[C@H](CC(C)C)NC(=O)OCc1ccccc1 [{1-[(S)-(S)-1-((S)-1-Formyl-3-methyl-butylcarbamoyl)-3-methyl-butylcarbamoyl]-3-methyl-butyl}-carbamic acid benzyl ester] (Cbz-Leu-Leu-Leu-aldehyde)
IC50 [6]: 1080 nM

Cn1c2c(c(=O)n(Cc3ccc(Cl)cc3)c1=O)CN(Cc1cccc(C#N)c1)CC2
EC50 [3]: 135 nM
